From ChEMBL document CHEMBL3045319, “Synthesis, antitumor activity, and structureactivity relationship of some 4H-pyrano[3,2-h]quinoline and 7H-pyrimido[4,5:6,5]pyrano[3,2-h]quinoline derivatives” (Med Chem Res, 2013)
Values after ≈ are worked out from the molar mass of the structure shown.

test system: HepG2; experiment: Cytotoxicity against Homo sapiens (human) HepG2 cells after 48 hr by MTT assay; format: functional, cell-based; details: Homo sapiens, HepG2, 48 h; read-out: IC50

Compared with `Cc1ccc2ccc3c(c2n1)Oc1ncnc(N)c1C3c1ccc(Cl)cc1` (configuration not stated), `CCO/C=N/C1=C(C#N)C(c2ccc(Cl)cc2)c2ccc3ccc(C)nc3c2O1` (configuration not stated) is 7.1-fold higher in IC50: 6.3 µg/mL (≈ 16.8 µM) for the first, 44.5 µg/mL (≈ 110 µM) for the second.

test system: HepG2; experiment: Cytotoxicity against Homo sapiens (human) HepG2 cells assessed as cell viability at 1.56 ug/ml after 48 hr by MTT assay relative to control; format: functional; details: HepG2, 48 h, read-out: Activity

Compared with `Cc1ccc2ccc3c(c2n1)Oc1ncnc(N)c1C3c1ccc(Cl)cc1` (configuration not stated), `CCO/C=N/C1=C(C#N)C(c2ccc(Cl)cc2)c2ccc3ccc(C)nc3c2O1` (configuration not stated) is higher in viability at 1.56 µg/mL: 68.3% for the first, 100% for the second.

test system: HepG2; experiment: Cytotoxicity against Homo sapiens (human) HepG2 cells assessed as cell viability at 3.125 ug/ml after 48 hr by MTT assay relative to control; format: functional; details: HepG2, 48 h, read-out: Activity

Compared with `Cc1ccc2ccc3c(c2n1)Oc1ncnc(N)c1C3c1ccc(Cl)cc1` (configuration not stated), `CCO/C=N/C1=C(C#N)C(c2ccc(Cl)cc2)c2ccc3ccc(C)nc3c2O1` (configuration not stated) is higher in viability at 3.125 µg/mL: 60.2% for the first, 96.4% for the second.

test system: HepG2; experiment: Cytotoxicity against Homo sapiens (human) HepG2 cells assessed as cell viability at 6.25 ug/ml after 48 hr by MTT assay relative to control; format: functional; details: HepG2, 48 h, read-out: Activity

Going from `Cc1ccc2ccc3c(c2n1)Oc1ncnc(N)c1C3c1ccc(Cl)cc1` (configuration not stated) to `CCO/C=N/C1=C(C#N)C(c2ccc(Cl)cc2)c2ccc3ccc(C)nc3c2O1` (configuration not stated), the viability at 6.25 µg/mL rises from 50.8% to 85.1%.

test system: HepG2; experiment: Cytotoxicity against Homo sapiens (human) HepG2 cells assessed as cell viability at 12.5 ug/ml after 48 hr by MTT assay relative to control; format: functional; details: HepG2, 48 h, read-out: Activity

Going from `Cc1ccc2ccc3c(c2n1)Oc1ncnc(N)c1C3c1ccc(Cl)cc1` (configuration not stated) to `CCO/C=N/C1=C(C#N)C(c2ccc(Cl)cc2)c2ccc3ccc(C)nc3c2O1` (configuration not stated), the viability at 12.5 µg/mL rises from 43.7% to 79.4%.

test system: HepG2; experiment: Cytotoxicity against Homo sapiens (human) HepG2 cells assessed as cell viability at 25 ug/ml after 48 hr by MTT assay relative to control; format: functional; details: HepG2, 48 h, read-out: Activity

First: Cc1ccc2ccc3c(c2n1)Oc1ncnc(N)c1C3c1ccc(Cl)cc1 (configuration not stated)
Second: CCO/C=N/C1=C(C#N)C(c2ccc(Cl)cc2)c2ccc3ccc(C)nc3c2O1 (configuration not stated)
The viability at 25 µg/mL of the first is lower: 37% for the first, 69% for the second.

test system: HepG2; experiment: Cytotoxicity against Homo sapiens (human) HepG2 cells assessed as cell viability at 50 ug/ml after 48 hr by MTT assay relative to control; format: functional; details: HepG2, 48 h, read-out: Activity

Compared with `Cc1ccc2ccc3c(c2n1)Oc1ncnc(N)c1C3c1ccc(Cl)cc1` (configuration not stated), `CCO/C=N/C1=C(C#N)C(c2ccc(Cl)cc2)c2ccc3ccc(C)nc3c2O1` (configuration not stated) is higher in viability at 50 µg/mL: 28.3% for the first, 45.2% for the second.

test system: not listed separately; experiment: Cytotoxicity against Homo sapiens (human) HCT cells after 48 hr by MTT assay; format: functional, cell-based; details: not given

Compared with `Cc1ccc2ccc3c(c2n1)Oc1ncnc(N)c1C3c1ccc(Cl)cc1` (configuration not stated), `CCO/C=N/C1=C(C#N)C(c2ccc(Cl)cc2)c2ccc3ccc(C)nc3c2O1` (configuration not stated) is 7.3-fold lower in IC50: 26.4 µg/mL (≈ 70.4 µM) for the first, 3.6 µg/mL (≈ 8.91 µM) for the second.

test system: not listed separately; experiment: Cytotoxicity against Homo sapiens (human) HCT cells assessed as cell viability at 1.56 ug/ml after 48 hr by MTT assay relative to control; format: functional; details: read-out: Activity

Compared with `Cc1ccc2ccc3c(c2n1)Oc1ncnc(N)c1C3c1ccc(Cl)cc1` (configuration not stated), `CCO/C=N/C1=C(C#N)C(c2ccc(Cl)cc2)c2ccc3ccc(C)nc3c2O1` (configuration not stated) is lower in viability at 1.56 µg/mL: 100% for the first, 75.5% for the second.

test system: not listed separately; experiment: Cytotoxicity against Homo sapiens (human) HCT cells assessed as cell viability at 6.25 ug/ml after 48 hr by MTT assay relative to control; format: functional; details: read-out: Activity

Going from `Cc1ccc2ccc3c(c2n1)Oc1ncnc(N)c1C3c1ccc(Cl)cc1` (configuration not stated) to `CCO/C=N/C1=C(C#N)C(c2ccc(Cl)cc2)c2ccc3ccc(C)nc3c2O1` (configuration not stated), the viability at 6.25 µg/mL falls from 90.5% to 35.3%.

test system: MCF7; experiment: Cytotoxicity against Homo sapiens (human) MCF7 cells assessed as cell viability at 1.56 ug/ml after 48 hr by MTT assay relative to control; format: functional; details: MCF7, 48 h, read-out: Activity

First: Cc1ccc2ccc3c(c2n1)Oc1ncnc(N)c1C3c1ccc(Cl)cc1 (configuration not stated)
Second: CCO/C=N/C1=C(C#N)C(c2ccc(Cl)cc2)c2ccc3ccc(C)nc3c2O1 (configuration not stated)
The viability at 1.56 µg/mL of the first is higher: 100% for the first, 96.1% for the second.

test system: MCF7; experiment: Cytotoxicity against Homo sapiens (human) MCF7 cells assessed as cell viability at 3.125 ug/ml after 48 hr by MTT assay relative to control; format: functional; details: MCF7, 48 h, read-out: Activity

Going from `Cc1ccc2ccc3c(c2n1)Oc1ncnc(N)c1C3c1ccc(Cl)cc1` (configuration not stated) to `CCO/C=N/C1=C(C#N)C(c2ccc(Cl)cc2)c2ccc3ccc(C)nc3c2O1` (configuration not stated), the viability at 3.125 µg/mL falls from 97.3% to 87.4%.

test system: MCF7; experiment: Cytotoxicity against Homo sapiens (human) MCF7 cells assessed as cell viability at 12.5 ug/ml after 48 hr by MTT assay relative to control; format: functional; details: MCF7, 48 h, read-out: Activity

Going from `Cc1ccc2ccc3c(c2n1)Oc1ncnc(N)c1C3c1ccc(Cl)cc1` (configuration not stated) to `CCO/C=N/C1=C(C#N)C(c2ccc(Cl)cc2)c2ccc3ccc(C)nc3c2O1` (configuration not stated), the viability at 12.5 µg/mL falls from 89.2% to 63.4%.

test system: MCF7; experiment: Cytotoxicity against Homo sapiens (human) MCF7 cells assessed as cell viability at 6.25 ug/ml after 48 hr by MTT assay relative to control; format: functional; details: MCF7, 48 h, read-out: Activity

Compared with `Cc1ccc2ccc3c(c2n1)Oc1ncnc(N)c1C3c1ccc(Cl)cc1` (configuration not stated), `CCO/C=N/C1=C(C#N)C(c2ccc(Cl)cc2)c2ccc3ccc(C)nc3c2O1` (configuration not stated) is lower in viability at 6.25 µg/mL: 94.5% for the first, 76.6% for the second.

test system: MCF7; experiment: Cytotoxicity against Homo sapiens (human) MCF7 cells assessed as cell viability at 50 ug/ml after 48 hr by MTT assay relative to control; format: functional; details: MCF7, 48 h, read-out: Activity

Going from `Cc1ccc2ccc3c(c2n1)Oc1ncnc(N)c1C3c1ccc(Cl)cc1` (configuration not stated) to `CCO/C=N/C1=C(C#N)C(c2ccc(Cl)cc2)c2ccc3ccc(C)nc3c2O1` (configuration not stated), the viability at 50 µg/mL falls from 70.2% to 37.5%.

test system: MCF7; experiment: Cytotoxicity against Homo sapiens (human) MCF7 cells assessed as cell viability at 25 ug/ml after 48 hr by MTT assay relative to control; format: functional; details: MCF7, 48 h, read-out: Activity

Compared with `Cc1ccc2ccc3c(c2n1)Oc1ncnc(N)c1C3c1ccc(Cl)cc1` (configuration not stated), `CCO/C=N/C1=C(C#N)C(c2ccc(Cl)cc2)c2ccc3ccc(C)nc3c2O1` (configuration not stated) is lower in viability at 25 µg/mL: 81.7% for the first, 48.6% for the second.

test system: not listed separately; experiment: Cytotoxicity against Homo sapiens (human) HCT cells assessed as cell viability at 3.125 ug/ml after 48 hr by MTT assay relative to control; format: functional; details: read-out: Activity

First: Cc1ccc2ccc3c(c2n1)Oc1ncnc(N)c1C3c1ccc(Cl)cc1 (configuration not stated)
Second: CCO/C=N/C1=C(C#N)C(c2ccc(Cl)cc2)c2ccc3ccc(C)nc3c2O1 (configuration not stated)
The viability at 3.125 µg/mL of the first is higher: 98.8% for the first, 54.9% for the second.

test system: not listed separately; experiment: Cytotoxicity against Homo sapiens (human) HCT cells assessed as cell viability at 12.5 ug/ml after 48 hr by MTT assay relative to control; format: functional; details: read-out: Activity

Compared with `Cc1ccc2ccc3c(c2n1)Oc1ncnc(N)c1C3c1ccc(Cl)cc1` (configuration not stated), `CCO/C=N/C1=C(C#N)C(c2ccc(Cl)cc2)c2ccc3ccc(C)nc3c2O1` (configuration not stated) is lower in viability at 12.5 µg/mL: 78.9% for the first, 26% for the second.

test system: not listed separately; experiment: Cytotoxicity against Homo sapiens (human) HCT cells assessed as cell viability at 25 ug/ml after 48 hr by MTT assay relative to control; format: functional; details: read-out: Activity

Going from `Cc1ccc2ccc3c(c2n1)Oc1ncnc(N)c1C3c1ccc(Cl)cc1` (configuration not stated) to `CCO/C=N/C1=C(C#N)C(c2ccc(Cl)cc2)c2ccc3ccc(C)nc3c2O1` (configuration not stated), the viability at 25 µg/mL falls from 51.1% to 18.4%.

test system: not listed separately; experiment: Cytotoxicity against Homo sapiens (human) HCT cells assessed as cell viability at 50 ug/ml after 48 hr by MTT assay relative to control; format: functional; details: read-out: Activity

Compared with `Cc1ccc2ccc3c(c2n1)Oc1ncnc(N)c1C3c1ccc(Cl)cc1` (configuration not stated), `CCO/C=N/C1=C(C#N)C(c2ccc(Cl)cc2)c2ccc3ccc(C)nc3c2O1` (configuration not stated) is lower in viability at 50 µg/mL: 41.6% for the first, 15.2% for the second.

test system: MCF7; experiment: Cytotoxicity against Homo sapiens (human) MCF7 cells after 48 hr by MTT assay; format: functional, cell-based; details: MCF7, 48 h

First: Cc1ccc2ccc3c(c2n1)Oc1ncnc(N)c1C3c1ccc(Cl)cc1 (configuration not stated)
Second: CCO/C=N/C1=C(C#N)C(c2ccc(Cl)cc2)c2ccc3ccc(C)nc3c2O1 (configuration not stated)
The IC50 of the first is higher: greater than 50 µg/mL for the first, 23.8 µg/mL (≈ 58.9 µM) for the second.
